From ChEMBL document CHEMBL3877279, “Design, synthesis, in-silico and biological evaluation of novel donepezil derivatives as multi-target-directed ligands for the treatment of Alzheimer's disease” (Eur J Med Chem, 2017)
Activity calls are given as the source filed them. The calls are words filed in the database; no cut-off is given here.

Tests used:
Cholinesterase = Cholinesterase (Equus caballus, UniProt P81908); assay: Inhibition of equine serum BuChE using butyrylthiocholine iodide as substrate preincubated for 5 mins followed by substrate addition measured after 2 mins by Ellman's method; type: ADME
[1] = Antioxidant activity assessed as trolox equivalent of AAPH radical scavenging activity at 1 to 25 uM preincubated for 15 mins followed by AAPH addition measured every min for 80 mins by ORAC-FL assay; type: functional
[2] = Selectivity index, ratio of IC50 for equine serum BuChE to IC50 for Electric eel AChE
Acetylcholinesterase = Acetylcholinesterase (Electrophorus electricus, UniProt O42275); assay: Inhibition of Electric eel AChE using acetylthiocholine iodide as substrate preincubated for 5 mins followed by substrate addition measured after 2 mins by Ellman's method
[3] = biological target: T1, Amyloid-beta precursor protein (Homo sapiens, UniProt P05067); assay: Inhibition of HFIP-pretreated amyloid beta (1 to 42) (unknown origin) self-induced aggregation at 25 uM after 48 hrs by thioflavin-T fluorescence assay relative to control
[4] = biological target: T1, Amyloid-beta precursor protein; assay: Inhibition of amyloid beta (1 to 42) (unknown origin) fibril formation at 25 uM after 48 hrs by uranyl acetate staining based transmission electron microscopic method
[5] = biological target: T1, Amyloid-beta precursor protein; assay: Inhibition of HFIP-pretreated amyloid beta (1 to 42) (unknown origin) self-induced aggregation after 48 hrs by thioflavin-T fluorescence assay
[6] = biological target: T1, Amyloid-beta precursor protein; assay: Potency index, ratio of compound effect to curcumin effect for inhibition of HFIP-pretreated amyloid beta (1 to 42) (unknown origin) self-induced aggregation at 25 uM

Sequence of Acetylcholinesterase (O42275 whole entry): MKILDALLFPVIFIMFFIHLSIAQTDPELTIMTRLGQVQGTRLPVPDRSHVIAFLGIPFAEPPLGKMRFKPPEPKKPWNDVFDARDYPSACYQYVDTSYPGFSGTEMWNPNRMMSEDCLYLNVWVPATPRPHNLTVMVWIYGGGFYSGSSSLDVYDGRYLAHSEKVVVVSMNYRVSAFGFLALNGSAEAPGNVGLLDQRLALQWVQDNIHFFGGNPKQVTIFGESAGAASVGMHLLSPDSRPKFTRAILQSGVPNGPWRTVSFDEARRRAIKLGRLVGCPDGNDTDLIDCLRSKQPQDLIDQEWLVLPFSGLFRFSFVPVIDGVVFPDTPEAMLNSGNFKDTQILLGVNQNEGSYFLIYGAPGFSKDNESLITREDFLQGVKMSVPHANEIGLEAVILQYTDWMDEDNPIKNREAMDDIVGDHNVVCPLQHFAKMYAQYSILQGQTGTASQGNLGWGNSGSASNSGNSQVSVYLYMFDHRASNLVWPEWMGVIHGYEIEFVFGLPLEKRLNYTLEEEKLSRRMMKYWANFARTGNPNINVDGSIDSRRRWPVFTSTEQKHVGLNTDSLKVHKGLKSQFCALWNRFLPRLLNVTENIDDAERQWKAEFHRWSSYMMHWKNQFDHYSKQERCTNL
Sequence of Cholinesterase (P81908 whole entry): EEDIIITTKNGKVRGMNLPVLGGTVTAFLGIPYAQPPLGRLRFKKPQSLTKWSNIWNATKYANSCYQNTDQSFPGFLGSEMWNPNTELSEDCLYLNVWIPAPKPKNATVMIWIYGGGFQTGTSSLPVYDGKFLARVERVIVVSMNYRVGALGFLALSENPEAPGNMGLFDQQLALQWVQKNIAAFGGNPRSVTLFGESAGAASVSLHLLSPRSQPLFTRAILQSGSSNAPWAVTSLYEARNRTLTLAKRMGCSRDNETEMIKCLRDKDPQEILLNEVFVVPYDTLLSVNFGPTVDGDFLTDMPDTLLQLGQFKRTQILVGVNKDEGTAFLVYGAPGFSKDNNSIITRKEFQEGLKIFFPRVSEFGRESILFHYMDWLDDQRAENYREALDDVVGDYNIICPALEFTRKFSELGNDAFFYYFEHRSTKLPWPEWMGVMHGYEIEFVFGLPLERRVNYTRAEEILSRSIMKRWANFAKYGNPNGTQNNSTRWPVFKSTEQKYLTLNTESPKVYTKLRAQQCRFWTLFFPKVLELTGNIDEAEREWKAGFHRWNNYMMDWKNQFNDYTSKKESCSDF
T1 sequence (P05067 whole entry): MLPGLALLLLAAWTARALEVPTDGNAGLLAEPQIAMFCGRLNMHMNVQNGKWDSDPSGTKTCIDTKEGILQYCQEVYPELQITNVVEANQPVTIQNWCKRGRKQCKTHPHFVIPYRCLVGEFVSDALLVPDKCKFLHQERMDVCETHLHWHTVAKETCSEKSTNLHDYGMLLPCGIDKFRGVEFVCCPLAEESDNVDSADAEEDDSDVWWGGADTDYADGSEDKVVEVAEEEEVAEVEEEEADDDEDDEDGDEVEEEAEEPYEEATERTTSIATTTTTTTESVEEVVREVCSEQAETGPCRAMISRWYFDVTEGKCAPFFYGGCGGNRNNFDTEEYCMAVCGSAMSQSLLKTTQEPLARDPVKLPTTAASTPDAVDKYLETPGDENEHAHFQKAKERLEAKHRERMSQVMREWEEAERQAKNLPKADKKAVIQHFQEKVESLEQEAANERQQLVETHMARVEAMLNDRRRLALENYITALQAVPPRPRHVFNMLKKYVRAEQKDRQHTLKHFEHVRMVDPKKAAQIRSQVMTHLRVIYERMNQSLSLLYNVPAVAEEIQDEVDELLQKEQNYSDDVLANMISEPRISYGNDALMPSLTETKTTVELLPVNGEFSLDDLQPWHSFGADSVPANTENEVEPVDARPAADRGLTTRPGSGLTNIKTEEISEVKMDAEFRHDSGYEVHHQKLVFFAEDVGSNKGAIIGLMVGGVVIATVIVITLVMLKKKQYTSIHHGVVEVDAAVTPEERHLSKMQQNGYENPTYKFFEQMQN

| inhibition [4] | Structure (SMILES) | IC50 (Cholinesterase) [µM] | Activity (umolequiv/umol) [1] | Ratio IC50 [2] | IC50 (Acetylcholinesterase) [µM] | inhibition [3] [%] | IC50 [5] [µM] | Ratio [6] |
| --- | --- | --- | --- | --- | --- | --- | --- | --- |
| – | COc1cc2c(cc1OC)C(=O)/C(=C/c1ccc(N3CCN(Cc4ccc5c(c4)OCO5)CC3)cc1)C2 | 12.2 | 3.35 | 6.5 | 1.86 | 64.5 | – | – |
| – | COc1cc2c(cc1OC)C(=O)/C(=C/c1ccc(N3CCN(c4ccc(C)cc4C)CC3)cc1)C2 | 5.13 | 1.35 | 45.8 | 0.112 | 65.7 | – | – |
| Active | COc1cc(/C=C/C(=O)CC(=O)/C=C/c2ccc(O)c(OC)c2)ccc1O | – | – | – | – | – | – | – |
| – | COc1cc2c(cc1OC)C(=O)/C(=C/c1ccc(N3CCN(C(c4ccccc4)c4ccccc4)CC3)cc1)C2 | 4.89 | 1.41 | 59.6 | 0.082 | 78.2 | 12.2 | – |
| – | COc1cc2c(cc1OC)C(=O)/C(=C/c1ccc(N3CCN(c4ccc(C(F)(F)F)cc4)CC3)cc1)C2 | 0.214 | 1.72 | 1.4 | 0.153 | 64.2 | – | – |
| – | COc1cc2c(cc1OC)C(=O)/C(=C/c1ccc(N3CCN(Cc4ccccc4)CC3)cc1)C2 | 0.088 | 1.69 | 0.03 | 2.62 | 48.5 | – | – |
| – | COc1ccc(N2CCN(c3ccc(/C=C4\Cc5cc(OC)c(OC)cc5C4=O)cc3)CC2)cc1 | 0.603 | 3.39 | 5.06 | 0.119 | 70.5 | – | 1.26 |
| – | COc1cc2c(cc1OC)C(=O)/C(=C/c1ccc(N3CCN(c4ccc(Cl)cc4)CC3)cc1)C2 | 2.22 | 1.87 | 7.6 | 0.291 | 59.5 | – | – |
